# Measurements: publication PMC3790851, “Improved Mass Spectrometry Assay For Plasma Hepcidin: Detection and Characterization of a Novel Hepcidin Isoform” (PLoS ONE, 2013)
# How the values were obtained:
# in vitro = settings: for remaining at 4320 h: human
# Method: Serum samples from healthy controls that were used in this study concerned leftover aliquots (stored at −80°C) that were collected in February 2011 [18]. In addition, citrate plasma, heparin plasma, EDTA plasma and serum for stability studies was drawn in the afternoon from healthy volunteers (n = 5), known for having fasted morning hepcidin levels above the lower limit of detection (>0.5 nM) in September 2012. Fresh samples were measured within 2–4 hrs hours after blood drawing and stored in aliquots at various temperatures for prolonged incubation.
# Heparin plasma QC samples (n = 2), high and low (HiQC2011 and LoQC2011), were obtained in November 2011 by pooling sample leftover samples from IC patients and iron-depleted HFE-hemochromatosis patients, respectively. Serum QC samples (n = 2), high and low (HiQC2009 and LoQC2009), were obtained in April 2009 from 2 blood donors from the local blood donation centre. To obtain the high QC sample, serum of one of the donors with a native hepcidin concentration <1 nM was spiked with synthetic hepcidin-25 from Peptide International (PI, Louisville, KY, USA) to a concentration of 9 nM.
# WCX-TOF MS was performed between October 2011 and March 2013 as described previously by a combination of WCX bead-based hepcidin enrichment followed by TOF-MS [6]. As internal standards for quantification were used: i) synthetic hepcidin-24 (custom made Peptide International, 2673.9 Da; [5]); ii) novel custom made heavy hepcidin-25^+40 (see below, Table 1). Mass-to-charge (m/z) spectra were generated by using MALDI-TOF MS (Microflex LT, Bruker Daltonics). Spectra were analyzed by using Bruker Daltonics FlexAnalysis software. A detailed protocol of this method is described in [6]. Total hepcidin concentration was defined as the sum of hepcidin-25, -24, -22, and -20 concentrations.
# Using the novel heavy hepcidin-25 internal standard, we assessed changes in hepcidin-25 and the smaller isoforms in various samples containing various anticoagulants ex vivo at room temperature (RT), 4°C, −20°C and −80°C. More specifically, changes in hepcidin concentrations relative to those found in freshly collected samples were determined i) at storage at RT and 4°C on day 0 (fresh samples), 1 (14–22 hrs), 2, 3, and 7 days after sampling/storage, ii) at −20°C after 1 week, and after 1, 4 and 6 months of storage and iii) at −80°C at after 6 months of storage. We also assessed the effect of the addition of protease inhibitors on the stability of hepcidin concentrations of heparin plasma of IC patients at RT during a 1 week storage. To this end, before storage we used 1 tablet of protease inhibitor (Complete, Mini, Roche Diagnostics, Mannheim, Germany) solved in 200 µL PBS, of which 20 µL was added to 1 ml plasma. Finally, we used our QC charts to assess the stability of hepcidin concentrations in heparin plasma and serum QC aliquots stored at −80°C for 2 years.
# [1] = serum from 12 healthy controls; stable for; ref 35 Itkonen et al.; cited from earlier work
smiles,measurement,setting,value
CC[C@H](C)[C@@H]1NC(=O)[C@@H](NC(=O)[C@@H](NC(=O)[C@@H]2CCCN2C(=O)[C@H](Cc2ccccc2)NC(=O)[C@H](Cc2c[nH]cn2)NC(=O)[C@@H](NC(=O)[C@@H](N)CC(=O)O)[C@@H](C)O)[C@@H](C)CC)CSSC[C@@H](C(=O)N[C@@H](CCCCN)C(=O)N[C@H](C(=O)O)[C@@H](C)O)NC(=O)[C@@H]2CSSC[C@H](NC(=O)[C@H](Cc3ccccc3)NC1=O)C(=O)N[C@H]1CSSC[C@H](NC(=O)[C@H](CCCCN)NC(=O)[C@H](CO)NC(=O)[C@H](CCCNC(=N)N)NC(=O)[C@H](Cc3c[nH]cn3)NC(=O)[C@@H]3CSSC[C@H](NC(=O)CNC1=O)C(=O)N3)C(=O)NCC(=O)N[C@@H](CCSC)C(=O)N2 [Hepcidin-25],"stable at -80°C for, QC heparin plasma","in vitro; QC heparin plasma samples, heavy hepcidin internal standard",at least 1.5 years
same,"stable at -80°C for, QC serum","in vitro; QC serum samples, former hepcidin-24 internal standard",2 years
same,"Hepcidin level after 6 months at -80°C, EDTA plasma","in vitro; average, 5 controls, CV 5",96%
same,"Hepcidin level after 6 months at -80°C, citrate plasma","in vitro; average, 5 controls, CV 5",96%
same,remaining at 4320 h,in vitro; heparin plasma,95%
same,remaining at 4320 h,in vitro; serum,94%
same,average decrease in hepcidin-25 after 6 months at -80°C,"in vitro; serum, heparin, EDTA and citrate plasma, 5 healthy volunteers, not significant",4–6%
same,stability at room temperature,[1],1 days
